In the NIST ThermoML archive (doi:10.1016/j.jct.2014.07.003):

Experiments:
[1] = mn = molality of the nth substance listed, in mol/kg; details: 99 kPa, Liquid, Alternating current cell with electrodes
[2] = 99 kPa, Liquid, Alternating current cell with electrodes

CCCC[N+](CCCC)(CCCC)CCCC.[Br-] [tetrabutylammonium bromide] + O
[1], m1 = 0.01
Details	electrical conductivity [S/m]
288.15 K	0.106
293.15 K	0.0894
298.15 K	0.0829
303.15 K	0.0841
308.15 K	0.083
313.15 K	0.0843
318.15 K	0.0856

CCCCC[N+](CCCCC)(CCCCC)CCCCC.[Br-] [tetrapentylammonium bromide] + O
[1], m1 = 0.01
Details	electrical conductivity [S/m]
288.15 K	0.0961
293.15 K	0.0898
298.15 K	0.0879
303.15 K	0.09
308.15 K	0.0897
313.15 K	0.0881
318.15 K	0.0903

O [water]
[2]
Details	electrical conductivity [S/m]
288.15 K	0.0005
293.15 K	0.000281
298.15 K	0.000585
303.15 K	0.000687
308.15 K	0.00057
313.15 K	0.000608
318.15 K	0.000835

O [water] + CCCCCCCCCCCC[N+](C)(C)C.[Br-]
[1], m2 = 0
Details	electrical conductivity [S/m]
288.15 K	0.0005
293.15 K	0.000281
298.15 K	0.000585
303.15 K	0.000687
308.15 K	0.00057
313.15 K	0.000608
318.15 K	0.000835
